Reference: patent US20230091047A1 (priority 2019, published 2023)
Read-outs that look alike come from different tables or passages of the source.

What was measured:
[1] = system: HBV (HepG2.117 cell line, inducibly HBV producing); assay: Anti-HBV activity: intracellular HBV DNA by real-time PCR in HepG2.117 cells after 3 days of treatment; assay type: cell-based, hepatitis B virus
Outline: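 Read-out is intracellular HBV DNA, measured by real-time PCR using HBV-specific primers and probe. Cells were stable, inducible HBV-producing HepG2.117 (Tet-off). Serially diluted compound was applied for 3 days after replication was induced.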

in vitro = assay type: cell-based; conditions: human, HepG2 or HepG2.117 cells, mean value
Outline: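 Luminescent ATP quantitation served as the viability endpoint following a 3- or 4-day incubation with test compounds.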

[2] = Hepatitis B virus, HepG2.117, 72 h, HepG2.117 cells, 3 days of treatment, intracellular HBV DNA by real-time PCR; mean value; read-out: EC50 (μM, mean value)
[3] = 3-days incubation (unmarked values), ATPlite
[4] = Hepatitis B virus, HepG2.117, 72 h, HepG2.117 cells, intracellular HBV DNA by real-time PCR, 3 days of treatment, mean value; read-out: EC50 (μM, mean value)
[5] = ATPlite, 3-days incubation (not marked with *)

CC(C)Nc1nc2c(c(=O)n1-c1ccc(NC3COC3)cc1)C[C@@H](C)N(C(=O)c1ccc(Cl)c(Cl)c1)C2 [Compound C190, (6R)-7-(3,4-dichlorobenzoyl)-6-methyl-3-{4-[(oxetan-3-yl)amino]phenyl}-2-[(propan-2-yl)amino]-5,6,7,8-tetrahydropyrido[3,4-d]pyrimidin-4(3H)-one]
EC50 [1, 2]: 0.18 µM
CC50 at 3 days (in vitro; [3]): > 50 µM

CNC(=O)c1ccc(-n2c(NCc3cccc(-c4nccn4C)c3)nc3c(c2=O)C[C@@H](C)N(C(=O)c2ccc(Cl)c(Cl)c2)C3)cc1 [Compound C488]
EC50 [1, 4]: 7.31 µM
CC50 at 3 days (in vitro; [5]): 28.2 µM

CNc1noc2cc(-n3c(NC(C)C)nc4c(c3=O)C[C@@H](C)N(C(=O)c3ccc(Cl)c(Cl)c3)C4)c(C)cc12 [Compound C447]
EC50 ([1]; HepG2.117 cells, intracellular HBV DNA by real-time PCR, 3 days of treatment, mean value; read-out: EC50 (μM, mean value)): 0.1 µM
CC50 at 3 days (in vitro; [5]): > 50 µM

CNC(=O)c1ccc(-n2c(NC(C)(C)C)nc3c(c2=O)C[C@@H](C)N(C(=O)c2ccc(Cl)c(C(F)(F)F)c2)C3)c(Cl)c1 (single isomer, unassigned) [Compound C677a]
EC50 [1, 2]: 0.02 µM
CC50 at 3 days (in vitro; 3-days incubation (unmarked values), ATPlite viability): > 50 µM

COc1ccc(CNc2nc3c(c(=O)n2-c2cnccc2C)CCN(C(=O)c2ccc(Cl)c(Cl)c2)C3)cc1 [Compound C113, 7-(3,4-dichlorobenzoyl)-2-{[(4-methoxyphenyl)methyl]amino}-3-(4-methylpyridin-3-yl)-5,6,7,8-tetrahydropyrido[3,4-d]pyrimidin-4(3H)-one]
EC50 [1, 2]: 0.65 µM
CC50 at 3 days (in vitro; [3]): 19.4 µM

CNC(=O)c1ccc(-n2c(NC(C)c3cc(C)no3)nc3c(c2=O)C[C@@H](C)N(C(=O)c2ccc(Cl)c(Cl)c2)C3)cc1 (some centres unmarked) [Compound C433]
EC50 [1, 4]: 0.33 µM
CC50 at 3 days (in vitro; [5]): > 50 µM

CNC(=O)c1ccc(-n2c(NC(C)C)nc3c(c2=O)C[C@@H](C)N(C(=O)c2ccc(F)c(Cl)c2)C3)cc1 [Compound C478]
EC50 [1, 4]: 1.28 µM
CC50 at 3 days (in vitro; [5]): > 50 µM

CNC(=O)[C@H]1CC[C@@H](n2c(N[C@@H](C)c3ccc(C(F)(F)F)cc3)nc3c(c2=O)C[C@@H](C)N(C(=O)c2ccc(Cl)c(Cl)c2)C3)CC1 [Compound C644]
EC50 [1, 4]: 0.23 µM
CC50 at 3 days (in vitro; [5]): 7.5 µM

CC(C)Nc1nc2c(c(=O)n1-c1ccc(-n3cnnn3)cc1)C[C@@H](C)N(C(=O)c1ccc(Cl)c(Cl)c1)C2 [Compound C460]
EC50 [1, 4]: 0.09 µM
CC50 at 3 days (in vitro; [5]): > 50 µM

CNC(=O)c1ccc(-n2c(NC(C)C)nc3c(c2=O)C[C@@H](C)N(C(=O)c2cc(Cl)c(Cl)cn2)C3)cc1 [Compound C674]
EC50 [1, 4]: 2.04 µM
CC50 at 3 days (in vitro; [5]): > 50 µM

CNC(=O)c1ccc(-n2c(N3CCC3(C)C)nc3c(c2=O)C[C@@H](C)N(C(=O)c2ccc(Cl)c(Cl)c2)C3)cc1 [Compound C303, 4-[(6R)-7-(3,4-dichlorobenzoyl)-2-(2,2-dimethylazetidin-1-yl)-6-methyl-4-oxo-5,6,7,8-tetrahydropyrido[3,4-d]pyrimidin-3(4H)-yl]-N-methylbenzamide]
EC50 [1, 2]: 0.07 µM
CC50 at 3 days (in vitro; [3]): 26.7 µM

CC(C)Nc1nc2c(c(=O)n1-c1ccc(S(C)(=O)=O)cc1)C[C@@H](c1ccc(F)cc1)N(C(=O)c1ccc(Cl)c(Cl)c1)C2 (single isomer, unassigned) [Compound C110A, (6*S)-7-(3,4-dichlorobenzoyl)-6-(4-fluorophenyl)-3-[4-(methanesulfonyl)phenyl]-2-[(propan-2-yl)amino]-5,6,7,8-tetrahydropyrido[3,4-d]pyrimidin-4(3H)-one]
EC50 [1, 2]: > 50 µM
CC50 at 3 days (in vitro; [3]): > 50 µM

CNC(=O)c1ccc(-n2c(NC(C)c3ccc(C(F)(F)F)cc3)nc3c(c2=O)C[C@@H](C)N(C(=O)c2ccc(Cl)c(Cl)c2)C3)cc1 (some centres unmarked) [Compound C413]
EC50 [1, 4]: 0.15 µM
CC50 at 3 days (in vitro; [5]): 6.5 µM

CC(C)Nc1nc2c(c(=O)n1-c1ccc(-c3ncco3)cc1)CCN(C(=O)c1ccc(Cl)c(Cl)c1)C2 [Compound C162, 7-(3,4-dichlorobenzoyl)-3-[4-(1,3-oxazol-2-yl)phenyl]-2-[(propan-2-yl)amino]-5,6,7,8-tetrahydropyrido[3,4-d]pyrimidin-4(3H)-one]
EC50 [1, 2]: 0.47 µM
CC50 at 3 days (in vitro; [3]): > 50 µM

COc1ccc(CNc2nc3c(c(=O)n2-c2ccc(N4CCC(NC(=O)OC(C)(C)C)C4)cc2)CCN(C(=O)c2ccc(Cl)c(Cl)c2)C3)cc1 (centres unmarked) [Compound C161, tert-butyl (1-{4-[7-(3,4-dichlorobenzoyl)-2-{[(4-methoxyphenyl)methyl]amino}-4-oxo-5,6,7,8-tetrahydropyrido[3,4-d]pyrimidin-3(4H)-yl]phenyl}pyrrolidin-3-yl)carbamate]
EC50 [1, 2]: 2.4 µM
CC50 at 3 days (in vitro; [3]): > 50 µM

CNC(=O)c1ccc(-n2c(N[C@H](C)c3ccc(OC)c(OC)c3)nc3c(c2=O)C[C@@H](C)N(C(=O)c2ccc(Cl)c(Cl)c2)C3)cc1 (single isomer, unassigned) [Compound C415a]
EC50 [1, 4]: 1.06 µM
CC50 at 3 days (in vitro; [5]): 32.9 µM

COc1ccc(CNc2nc3c(c(=O)n2-c2ccc(N4CCOCC4C(=O)O)cc2)CCN(C(=O)c2ccc(Cl)c(Cl)c2)C3)cc1 (centres unmarked) [Compound C159, 4-{4-[7-(3,4-dichlorobenzoyl)-2-{[(4-methoxyphenyl)methyl]amino}-4-oxo-5,6,7,8-tetrahydropyrido[3,4-d]pyrimidin-3(4H)-yl]phenyl}morpholine-3-carboxylic acid]
EC50 [1, 2]: 23.1 µM
CC50 at 3 days (in vitro; [3]): > 50 µM

CNC(=O)c1ccc(-n2c(N[C@H](C)c3ccccc3OC(F)F)nc3c(c2=O)C[C@@H](C)N(C(=O)c2ccc(Cl)c(Cl)c2)C3)cc1 (single isomer, unassigned) [Compound C438a]
EC50 [1, 4]: 0.73 µM
CC50 at 3 days (in vitro; [5]): 29.2 µM

CNC(=O)c1ccc(-n2c(NC(C)C)nc3c(c2=O)C[C@@H](C)N(C(=O)c2cc(F)c(Br)cc2F)C3)cc1 [Compound C574]
EC50 [1, 4]: 0.73 µM
CC50 at 3 days (in vitro; [5]): > 50 µM

COc1ccc(CN(CCCO)c2nc3c(c(=O)[nH]2)CCN(C(=O)c2ccc(Cl)c(Cl)c2)C3)cc1 [Compound C90, 7-(3,4-dichlorobenzoyl)-2-{(3-hydroxypropyl)[(4-methoxyphenyl)methyl]amino}-5,6,7,8-tetrahydropyrido[3,4-d]pyrimidin-4(3H)-one]
EC50 [1, 2]: 8 µM
CC50 at 3 days (in vitro; [3]): 21.2 µM

CNC(=O)c1ccc(-n2c(N[C@@H](C)C(C)(C)C)nc3c(c2=O)C[C@@H](C)N(C(=O)c2ccc(Cl)c(Cl)c2)C3)cc1 (single isomer, unassigned) [Compound C459b]
EC50 [1, 4]: 0.63 µM
CC50 at 3 days (in vitro; [5]): 32.5 µM

CNC(=O)c1ccc(-n2c(N[C@@H](C)c3cccnc3OC)nc3c(c2=O)C[C@@H](C)N(C(=O)c2ccc(Cl)c(Cl)c2)C3)cc1 (relative stereo) [Compound C286, 4-[(rt)-7-(3,4-dichlorobenzoyl)-2-{[(1*S)-1-(2-methoxypyridin-3-yl)ethyl]amino}-6-methyl-4-oxo-5,6,7,8-tetrahydropyrido[3,4-d]pyrimidin-3(4H)-yl]-N-methylbenzamide]
EC50 [1, 2]: 0.12 µM
CC50 at 3 days (in vitro; [3]): 29 µM

CNC(=O)c1ccc(-n2c(NCc3cnnn3C)nc3c(c2=O)C[C@@H](C)N(C(=O)c2ccc(Cl)c(Cl)c2)C3)cc1 [Compound C557]
EC50 [1, 4]: > 25 µM
CC50 at 3 days (in vitro; [5]): > 50 µM

CNC(=O)c1cc(C)c(-n2c(NC(C)C)nc3c(c2=O)C[C@@H](C)N(C(=O)c2ccc(Cl)c(Cl)c2)C3)c(C)c1 [Compound C391]
EC50 [1, 4]: 0.18 µM
CC50 at 3 days (in vitro; [5]): > 50 µM

CNC(=O)c1ccc(-n2c(N[C@@H](C)c3ccc4[nH]ncc4c3)nc3c(c2=O)C[C@@H](C)N(C(=O)c2ccc(Cl)c(Cl)c2)C3)cc1 (single isomer, unassigned) [Compound C529b]
EC50 [1, 4]: 0.72 µM
CC50 at 3 days (in vitro; [5]): > 50 µM
